{"source": "ChEMBL document CHEMBL5725348", "about": "“Benzimidazole inhibitors of the sodium channel” (2017)", "data": [{"assay": "Nav1.5 Assay: To assess the potential cardiac liability of compounds at an early stage in the drug discovery process, a Nav1.5 sodium channel screening assay was be performed on Molecular Device's PatchXpress™ automated electrophysiology platform. Under voltage-clamp conditions, Nav1.5 currents were recorded from HEK cells expressing the human Nav1.5 channel in the absence and presence of increasing concentrations of the test compound to obtain an IC50 value. The external recording solution contained (in mM): 90 TEACl, 50 NaCl, 1.8 CaCl, 1 MgCl2, 10 HEPES, 10 glucose, adjusted to pH 7.4 with TEA-OH and to 300 mOsm with sucrose (if necessary), while the internal patch pipette solution contained (in mM): 129 CsF, 2 MgCl2, 11 EGTA, 10 HEPES, 3 Na2ATP adjusted to pH 7.2 with CsOH and to 290 mOsm with sucrose (if necessary). Nav1.5 channel currents were evoked using a cardiac action potential waveform at 1 Hz, digitized at 31.25 kHz and low-pass filtered at 12 kHz.", "settings": "HEK293", "units": {"IC50": "µM"}, "values": [{"smiles": "O=C1CNCCN1Cc1nc2cc(C(F)(F)F)cc(C(F)(F)F)c2[nH]1", "IC50": "> 10"}, {"smiles": "NCc1nc2cc(C(F)(F)F)cc(C(F)(F)F)c2[nH]1", "IC50": "> 10"}, {"smiles": "NCCCc1nc2cc(C(F)(F)F)cc(C(F)(F)F)c2[nH]1", "IC50": 7.5}, {"smiles": "FC(F)(F)c1cc(C(F)(F)F)c2nc(CC3CNC3)[nH]c2c1", "IC50": "> 10"}, {"smiles": "NCC(=O)NCc1nc2cc(Cl)c(Cl)cc2[nH]1", "IC50": "> 10"}, {"smiles": "CC(C)(N)Cc1nc2cc(C(F)(F)F)cc(C(F)(F)F)c2[nH]1", "IC50": 3.6}, {"smiles": "CC(C)(N)C(=O)NCc1nc2cc(C(F)(F)F)cc(C(F)(F)F)c2[nH]1", "IC50": "> 10"}, {"smiles": "NCC(=O)NCc1nc2cc(C(F)(F)F)cc(C(F)(F)F)c2[nH]1", "IC50": "> 10"}, {"smiles": "CC(C)C[C@H](CN)Cc1nc2c(C(F)(F)F)cc(C(F)(F)F)cc2[nH]1", "IC50": "> 10"}, {"smiles": "NCCc1nc2cc(C(F)(F)F)cc(C(F)(F)F)c2[nH]1", "IC50": "> 10"}, {"smiles": "O=C1CNCCN1Cc1nc2cc(C(F)(F)F)c(C(F)(F)F)cc2[nH]1", "IC50": "> 10"}, {"smiles": "CNCc1nc2cc(C(F)(F)F)cc(C(F)(F)F)c2[nH]1", "IC50": "> 10"}, {"smiles": "CC1(NC(=O)CN2CC(Cc3nc4c(C(F)(F)F)cc(C(F)(F)F)cc4[nH]3)C2)CCC1", "IC50": "> 10"}]}]}
